{
  "source": "the OligoGym collection",
  "note": "HELM strings list units from the 5' end as sugar, base in round brackets, then linkage (d deoxyribose, r ribose, m 2'-O-methyl, p phosphodiester). Strings are as the collection lists them; they lack the last nucleoside at the 3' end of the tested compound. [moe] = 2'-O-(2-methoxyethyl) (MOE); [sp] = phosphorothioate linkage; [m5C] = 5-methylcytosine",
  "data": [
    {"molecular_target": "ATXN3", "test": "mouse, dose not given", "details": "ASO", "units": {"3 h FOB score": "score 0-7"}, "values": [
      {"substance": "RNA1{[moe](G)[sp].[moe]([m5C])p.[moe](A)p.[moe]([m5C])p.[moe](A)p.[moe]([m5C])p.d(T)[sp].d(T)[sp].d(T)[sp].d([m5C])[sp].d([m5C])[sp].d(T)[sp].d([m5C])[sp].d([m5C])[sp].d(T)[sp].d([m5C])[sp].[moe](A)p.[moe](A)[sp].[moe](T)}$$$$ (last 3' nucleoside missing)", "3 h FOB score": 0},
      {"substance": "RNA1{[moe]([m5C])[sp].[moe](T)p.[moe](G)p.[moe](T)p.[moe](A)[sp].d([m5C])[sp].d(A)[sp].d([m5C])[sp].d(T)[sp].d(T)[sp].d(T)[sp].d(T)[sp].d(A)[sp].d([m5C])[sp].d(A)[sp].[moe](T)p.[moe](T)p.[moe]([m5C])[sp].[moe]([m5C])}$$$$ (last 3' nucleoside missing)", "3 h FOB score": 1},
      {"substance": "RNA1{[moe](T)[sp].[moe](G)p.[moe](T)p.[moe](A)p.[moe]([m5C])[sp].d(A)[sp].d([m5C])[sp].d(T)[sp].d(T)[sp].d(T)[sp].d(T)[sp].d(A)[sp].d([m5C])[sp].d(A)[sp].d(T)[sp].[moe](T)p.[moe]([m5C])p.[moe]([m5C])[sp].[moe]([m5C])}$$$$ (last 3' nucleoside missing)", "3 h FOB score": 1},
      {"substance": "RNA1{[moe](T)[sp].[moe](G)p.[moe](T)p.[moe](T)p.[moe]([m5C])[sp].d(A)[sp].d(T)[sp].d(A)[sp].d(T)[sp].d([m5C])[sp].d([m5C])[sp].d(T)[sp].d(T)[sp].d(T)[sp].d(A)[sp].[moe](A)p.[moe]([m5C])p.[moe]([m5C])[sp].[moe]([m5C])}$$$$ (last 3' nucleoside missing)", "3 h FOB score": 0},
      {"substance": "RNA1{[moe](T)[sp].[moe](G)p.[moe](G)p.[moe](A)p.[moe](A)[sp].d([m5C])[sp].d(T)[sp].d(A)[sp].d([m5C])[sp].d([m5C])[sp].d(T)[sp].d(T)[sp].d(G)[sp].d([m5C])[sp].d(A)[sp].[moe](T)p.[moe](A)p.[moe]([m5C])[sp].[moe](T)}$$$$ (last 3' nucleoside missing)", "3 h FOB score": 5.38},
      {"substance": "RNA1{[moe](A)[sp].[moe](A)p.[moe](T)p.[moe](G)p.[moe]([m5C])[sp].d(T)[sp].d([m5C])[sp].d(A)[sp].d(T)[sp].d(T)[sp].d(T)[sp].d(A)[sp].d(T)[sp].d(T)[sp].d([m5C])[sp].[moe](T)p.[moe]([m5C])p.[moe](A)[sp].[moe](A)}$$$$ (last 3' nucleoside missing)", "3 h FOB score": 2},
      {"substance": "RNA1{[moe](G)[sp].[moe](T)p.[moe](T)p.[moe](A)p.[moe](A)p.d(T)[sp].d(A)[sp].d([m5C])[sp].d(T)[sp].d(T)[sp].d(T)[sp].d(T)[sp].d(T)[sp].d([m5C])[sp].d([m5C])[sp].[moe](A)p.[moe](G)p.[moe]([m5C])[sp].[moe]([m5C])}$$$$ (last 3' nucleoside missing)", "3 h FOB score": 1},
      {"substance": "RNA1{[moe]([m5C])[sp].[moe](T)p.[moe](G)p.[moe](G)p.[moe](T)[sp].d([m5C])[sp].d(A)[sp].d(G)[sp].d(T)[sp].d(T)[sp].d(T)[sp].d([m5C])[sp].d([m5C])[sp].d(T)[sp].d(A)[sp].[moe](A)p.[moe](T)p.[moe](T)[sp].[moe](T)}$$$$ (last 3' nucleoside missing)", "3 h FOB score": 0},
      {"substance": "RNA1{[moe](T)[sp].[moe](G)p.[moe](G)[sp].[moe]([m5C])[sp].[moe](A)[sp].d([m5C])[sp].d(A)[sp].d(T)[sp].d(T)[sp].d(T)[sp].d(T)[sp].d(T)[sp].d(T)[sp].d(A)[sp].d(T)[sp].[moe](A)[sp].[moe](G)p.[moe](A)[sp].[moe](G)}$$$$ (last 3' nucleoside missing)", "3 h FOB score": 6},
      {"substance": "RNA1{[moe](T)[sp].[moe](A)[sp].[moe](A)p.[moe](T)p.[moe](A)[sp].d([m5C])[sp].d(T)[sp].d(T)[sp].d(T)[sp].d(T)[sp].d(T)[sp].d([m5C])[sp].d([m5C])[sp].d(A)[sp].d(G)[sp].[moe]([m5C])p.[moe]([m5C])p.[moe](T)[sp].[moe](T)}$$$$ (last 3' nucleoside missing)", "3 h FOB score": 1.5},
      {"substance": "RNA1{[moe](G)[sp].[moe]([m5C])p.[moe](T)p.[moe](A)p.[moe](T)[sp].d(A)[sp].d(A)[sp].d(T)[sp].d(T)[sp].d([m5C])[sp].d(T)[sp].d(T)[sp].d(G)[sp].d([m5C])[sp].d(T)[sp].[moe](T)p.[moe]([m5C])p.[moe](A)[sp].[moe](A)}$$$$ (last 3' nucleoside missing)", "3 h FOB score": 1.75},
      {"substance": "RNA1{[moe](T)[sp].[moe](G)[sp].[moe]([m5C])p.[moe](T)p.[moe]([m5C])[sp].d(A)[sp].d(T)[sp].d(T)[sp].d(T)[sp].d(A)[sp].d(T)[sp].d(T)[sp].d([m5C])[sp].d(T)[sp].d([m5C])[sp].[moe](A)p.[moe](A)p.[moe](G)[sp].[moe](T)}$$$$ (last 3' nucleoside missing)", "3 h FOB score": 1},
      {"substance": "RNA1{[moe]([m5C])[sp].[moe](A)p.[moe]([m5C])p.[moe]([m5C])p.[moe](A)[sp].d(T)[sp].d([m5C])[sp].d(T)[sp].d(T)[sp].d(T)[sp].d(G)[sp].d(A)[sp].d([m5C])[sp].d(A)[sp].d(A)[sp].[moe](G)p.[moe]([m5C])p.[moe](T)[sp].[moe](A)}$$$$ (last 3' nucleoside missing)", "3 h FOB score": 1.25},
      {"substance": "RNA1{[moe](G)[sp].[moe](T)p.[moe](G)p.[moe](A)p.[moe]([m5C])[sp].d(T)[sp].d(A)[sp].d(A)[sp].d([m5C])[sp].d(A)[sp].d(G)[sp].d(T)[sp].d(A)[sp].d(T)[sp].d(G)[sp].[moe](T)p.[moe](T)p.[moe](T)[sp].[moe](T)}$$$$ (last 3' nucleoside missing)", "3 h FOB score": 2.25},
      {"substance": "RNA1{[moe](T)[sp].[moe](T)p.[moe](T)p.[moe]([m5C])p.[moe](A)p.d(T)[sp].d(G)[sp].d(T)[sp].d(T)[sp].d([m5C])[sp].d([m5C])[sp].d(A)[sp].d(G)[sp].d(A)[sp].d(T)[sp].[moe]([m5C])p.[moe](A)p.[moe]([m5C])[sp].[moe]([m5C])}$$$$ (last 3' nucleoside missing)", "3 h FOB score": 1},
      {"substance": "RNA1{[moe](A)[sp].[moe](G)p.[moe]([m5C])p.[moe]([m5C])p.[moe](A)[sp].d(A)[sp].d(T)[sp].d(A)[sp].d(T)[sp].d(T)[sp].d(T)[sp].d(A)[sp].d(T)[sp].d(A)[sp].d(G)[sp].[moe](G)p.[moe](T)p.[moe](G)[sp].[moe]([m5C])}$$$$ (last 3' nucleoside missing)", "3 h FOB score": 1},
      {"substance": "RNA1{[moe](G)[sp].[moe]([m5C])p.[moe](A)p.[moe](T)p.[moe](A)[sp].d(T)[sp].d(T)[sp].d(G)[sp].d(G)[sp].d(T)[sp].d(T)[sp].d(T)[sp].d(T)[sp].d([m5C])[sp].[moe](T)p.[moe]([m5C])p.[moe](A)[sp].[moe](T)}$$$$ (last 3' nucleoside missing)", "3 h FOB score": 5.5},
      {"substance": "RNA1{[moe]([m5C])[sp].[moe](A)p.[moe](G)p.[moe]([m5C])p.[moe](A)p.[moe]([m5C])p.d([m5C])[sp].d(A)[sp].d(T)[sp].d(A)[sp].d(T)[sp].d(A)[sp].d(T)[sp].d(A)[sp].d(T)[sp].d([m5C])[sp].[moe](T)p.[moe]([m5C])[sp].[moe](A)}$$$$ (last 3' nucleoside missing)", "3 h FOB score": 0.625},
      {"substance": "RNA1{[moe](G)[sp].[moe]([m5C])p.[moe](A)p.[moe](T)p.[moe](A)p.d(T)[sp].d(T)[sp].d(G)[sp].d(G)[sp].d(T)[sp].d(T)[sp].d(T)[sp].d(T)[sp].d([m5C])[sp].d(T)[sp].[moe]([m5C])p.[moe](A)p.[moe](T)p.[moe](T)}$$$$ (last 3' nucleoside missing)", "3 h FOB score": 3},
      {"substance": "RNA1{[moe](G)[sp].[moe](T)p.[moe](G)p.[moe]([m5C])p.[moe](T)[sp].d(A)[sp].d(T)[sp].d(A)[sp].d(A)[sp].d(T)[sp].d(T)[sp].d([m5C])[sp].d(T)[sp].d(T)[sp].d(G)[sp].[moe]([m5C])p.[moe](T)p.[moe](T)[sp].[moe]([m5C])}$$$$ (last 3' nucleoside missing)", "3 h FOB score": 1.25}
    ]}
  ]
}
